# Assay results published in ChEMBL document CHEMBL3885861, “Open TG-GATES”.
# Organism: Rattus norvegicus
# Experiment: Open TG-GATES - Regimen: Single
# Type: toxicity, organism-based, Sprague-Dawley
# Set-up: regimen Single, gender Male, age 6 weeks
# Settings: in vivo, po, 0 mg/kg, route gavage, dose level Control; for APTT / Bas / Eos / Fbg / Hb / Ht / Lym / MCH / MCHC / MCV / Mono / Neu / PT / Plat / RBC / Ret / WBC: tissue Blood; for KIDNEY_L / KIDNEY_R / KIDNEY_TOTAL: tissue Kidney; for LIVER: tissue Liver; for A/G / ALP / ALT / AST / BUN / CRE / Ca / Cl / DBIL / GLC / IP / K / LDH / Na / PL / RALB / TBIL / TC / TG / TP / gamma-GTP: tissue Plasma
structure (smiles),measurement,setting,value
CCCc1cc(=O)[nH]c(=S)[nH]1 [PROPYLTHIOURACIL],TERMINAL_BW,3 h,182.7 g
same,APTT,3 h,15.8 s
same,Bas,3 h,0%
same,Eos,3 h,1%
same,Fbg,3 h,217.4 mg/dL
same,Hb,3 h,13.2 g/dL
same,Ht,3 h,39.8%
same,Lym,3 h,78.6%
same,MCH,3 h,22.3 pg
same,MCHC,3 h,33.3%
same,MCV,3 h,67.1 fL
same,Mono,3 h,6.2%
same,Neu,3 h,14.6%
same,PT,3 h,12.6 s
same,Plat,3 h,108.3 x10_4/uL
same,RBC,3 h,593.2 x10_4/ul
same,Ret,3 h,10.7%
same,WBC,3 h,86.3 x10_2/uL
same,KIDNEY_L,3 h,0.8 g
same,KIDNEY_R,3 h,0.8 g
same,KIDNEY_TOTAL,3 h,1.7 g
same,LIVER,3 h,8.7 g
same,A/G,3 h,2
same,ALP,3 h,886.8 IU/L
same,ALT,3 h,39.6 IU/L
same,AST,3 h,69.8 IU/L
same,BUN,3 h,13.2 mg/dL
same,CRE,3 h,0.4 mg/dL
same,Ca,3 h,11 mg/dL
same,Cl,3 h,105 meq/L
same,DBIL,3 h,0.024 mg/dL
same,GLC,3 h,192.6 mg/dL
same,IP,3 h,9.9 mg/dL
same,K,3 h,5 meq/L
same,LDH,3 h,87.6 IU/L
same,Na,3 h,138.6 meq/L
same,PL,3 h,140.2 mg/dL
same,RALB,3 h,3.6 g/dL
same,TBIL,3 h,0.3 mg/dL
same,TC,3 h,82.4 mg/dL
same,TG,3 h,37.2 mg/dL
same,TP,3 h,5.5 g/dL
same,gamma-GTP,3 h,0.8 IU/L
same,TERMINAL_BW,6 h,178.3 g
same,APTT,6 h,16.1 s
same,Bas,6 h,0%
same,Eos,6 h,0%
same,Fbg,6 h,206.8 mg/dL
same,Hb,6 h,13 g/dL
same,Ht,6 h,39.3%
same,Lym,6 h,80%
same,MCH,6 h,21.5 pg
same,MCHC,6 h,33.1%
same,MCV,6 h,64.8 fL
same,Mono,6 h,6.4%
same,Neu,6 h,13.6%
same,PT,6 h,12.6 s
same,Plat,6 h,107.1 x10_4/uL
same,RBC,6 h,606.2 x10_4/ul
same,Ret,6 h,10.4%
same,WBC,6 h,111.4 x10_2/uL
same,KIDNEY_L,6 h,0.8 g
same,KIDNEY_R,6 h,0.8 g
same,KIDNEY_TOTAL,6 h,1.6 g
same,LIVER,6 h,7.9 g
same,A/G,6 h,2.2
same,ALP,6 h,853.4 IU/L
same,ALT,6 h,34.2 IU/L
same,AST,6 h,66.8 IU/L
same,BUN,6 h,11.8 mg/dL
same,CRE,6 h,0.5 mg/dL
same,Ca,6 h,10.7 mg/dL
same,Cl,6 h,105.2 meq/L
same,DBIL,6 h,0.046 mg/dL
same,GLC,6 h,182 mg/dL
same,IP,6 h,10 mg/dL
same,K,6 h,5 meq/L
same,LDH,6 h,82.2 IU/L
same,Na,6 h,137.6 meq/L
same,PL,6 h,136.6 mg/dL
same,RALB,6 h,3.6 g/dL
same,TBIL,6 h,0.3 mg/dL
same,TC,6 h,80 mg/dL
same,TG,6 h,33.4 mg/dL
same,TP,6 h,5.4 g/dL
same,gamma-GTP,6 h,1.8 IU/L
same,TERMINAL_BW,9 h,175.9 g
same,APTT,9 h,16 s
same,Bas,9 h,0%
same,Eos,9 h,1.2%
same,Fbg,9 h,215.4 mg/dL
same,Hb,9 h,13.1 g/dL
same,Ht,9 h,39.7%
same,Lym,9 h,77.8%
same,MCH,9 h,22 pg
same,MCHC,9 h,33.1%
same,MCV,9 h,66.2 fL
same,Mono,9 h,6.2%
same,Neu,9 h,15.2%
same,PT,9 h,12.5 s
same,Plat,9 h,107.3 x10_4/uL
same,RBC,9 h,599.2 x10_4/ul
same,Ret,9 h,10.2%
same,WBC,9 h,95.1 x10_2/uL
same,KIDNEY_L,9 h,0.8 g
same,KIDNEY_R,9 h,0.9 g
same,KIDNEY_TOTAL,9 h,1.7 g
same,LIVER,9 h,7.6 g
same,A/G,9 h,2
same,ALP,9 h,741.2 IU/L
same,ALT,9 h,33.6 IU/L
same,AST,9 h,61.8 IU/L
same,BUN,9 h,13.8 mg/dL
same,CRE,9 h,0.5 mg/dL
same,Ca,9 h,10.6 mg/dL
same,Cl,9 h,107.4 meq/L
same,DBIL,9 h,0.006 mg/dL
same,GLC,9 h,195.4 mg/dL
same,IP,9 h,11.1 mg/dL
same,K,9 h,5.2 meq/L
same,LDH,9 h,102.4 IU/L
same,Na,9 h,139.8 meq/L
same,PL,9 h,132.2 mg/dL
same,RALB,9 h,3.6 g/dL
same,TBIL,9 h,0.4 mg/dL
same,TC,9 h,76 mg/dL
same,TG,9 h,35.6 mg/dL
same,TP,9 h,5.5 g/dL
same,gamma-GTP,9 h,2.2 IU/L
same,TERMINAL_BW,24 h,192.6 g
same,APTT,24 h,16.1 s
same,Bas,24 h,0%
same,Eos,24 h,1%
same,Fbg,24 h,211.2 mg/dL
same,Hb,24 h,13.2 g/dL
same,Ht,24 h,40%
same,Lym,24 h,76.6%
same,MCH,24 h,21.6 pg
same,MCHC,24 h,33%
same,MCV,24 h,65.5 fL
same,Mono,24 h,9%
same,Neu,24 h,13.6%
same,PT,24 h,12.4 s
same,Plat,24 h,104.6 x10_4/uL
same,RBC,24 h,611.6 x10_4/ul
same,Ret,24 h,9.6%
same,WBC,24 h,123.5 x10_2/uL
same,KIDNEY_L,24 h,0.8 g
same,KIDNEY_R,24 h,0.9 g
same,KIDNEY_TOTAL,24 h,1.7 g
same,LIVER,24 h,9.1 g
same,A/G,24 h,2
same,ALP,24 h,974.2 IU/L
same,ALT,24 h,46.2 IU/L
same,AST,24 h,70.2 IU/L
same,BUN,24 h,19.2 mg/dL
same,CRE,24 h,0.6 mg/dL
same,Ca,24 h,10.9 mg/dL
same,Cl,24 h,105.2 meq/L
same,DBIL,24 h,0.016 mg/dL
same,GLC,24 h,196.6 mg/dL
same,IP,24 h,7.9 mg/dL
same,K,24 h,5 meq/L
same,LDH,24 h,86.6 IU/L
same,Na,24 h,138.6 meq/L
same,PL,24 h,152.8 mg/dL
same,RALB,24 h,3.7 g/dL
same,TBIL,24 h,0.3 mg/dL
same,TC,24 h,83.2 mg/dL
same,TG,24 h,96.2 mg/dL
same,TP,24 h,5.6 g/dL
same,gamma-GTP,24 h,2.4 IU/L
